According to ChEMBL document CHEMBL1147573, “Chemiluminescence quenching of pteroic acid-N-sulfonyl-acridinium-9-carboxamide conjugates by folate binding protein” (Bioorg Med Chem Lett, 2004):

Test: Binding affinity towards folate binding protein

SMILES	IC50 [nM]
Cc1ccc(S(=O)(=O)N(CCCC(=O)NCCCCCCNC(=O)c2ccc(N(Cc3cnc4nc(N)nc(O)c4n3)C(=O)C(F)(F)F)cc2)C(=O)c2c3ccccc3[n+](CCCS(=O)(=O)[O-])c3ccccc23)cc1	8.43
Cc1ccc(S(=O)(=O)N(CCCS(=O)(=O)[O-])C(=O)c2c3ccccc3[n+](CCCCCCCCCC(=O)NCCCCCCNC(=O)c3ccc(N(Cc4cnc5nc(N)nc(O)c5n4)C(=O)C(F)(F)F)cc3)c3ccccc23)cc1	8.14
